This data set in a line: 4-MU partitioning assay, backward transfer partitioning (backward extraction; BE), effect of aqueous phase surfactants on 4-MU containment. The data set is classed as physicochemical. Conditions: surfactant at 1.5 times its CMC; oil phase 5 cSt silicone oil with 0.1% w/v Triton X-15; lower signal = better 4-MU retention. An excerpt: The efficacy of different surfactants (detergents) in containing 4-MU (or derivatives) within an aqueous phase may, for example, be evaluated using a partitioning assay. Parameters that may be varied in the assay for evaluation of surfactants in aqueous containment of 4-MU (or derivatives) include, but are not limited to, the pH of the aqueous phase solution, and the critical micelle concentration of the surfactant.
The assay format includes forward transfer partitioning (forward extraction; FE) of 4-MU from an aqueous phase to an oil phase and backward transfer partitioning (backward extraction; BE) of 4-MU from an oil phase to an aqueous phase. The assay is performed in 96-well microtiter substrates; clear 96-well substrates (e.g., Costar 3631) for evaluation of forward transfer partitioning with bottom probe fluorescence detection and solid black 96-well substrates (e.g., Costar 3915) for evaluation of backward transfer partitioning with top probe fluorescence detection. A BioTek Synergy HT instrument with 3 mm top probe and 5 mm bottom probe, may, for example, be used for fluorescence measurements. […]

Consider ANAPOE ®-20 (Tween ® 20) [AS17], for which the “relative fluorescence reading, backward transfer partitioning (BE) of 4-MU” value is 43,000-44,000 RFU.

For the origin of these results see patent US9513253B2, “Droplet actuators and techniques for droplet-based enzymatic assays” (Advanced Liquid Logic, Inc., priority 2011, dated 2016).
